From patent US10973832B2, “Muscarinic M1 receptor agonists” (Heptares Therapeutics Limited, priority 2011, dated 2021) come the findings set out here.

Assay [1] concerns scopolamine-induced amnesia. The assay can be described thus: Passive avoidance. Format: in vivo. The following applies: for significance of reversal of scopolamine-induced amnesia: p<0.05 Bonferroni post hoc test; for reversal of scopolamine-induced amnesia: dose range 3, 10, 30 mg/kg po, scopolamine 1 mg/kg i.p. The method, then:
FIGS. 1-4 show the efficacy of the compounds of the invention. FIGS. 1-3 relate to the passive avoidance assay described in part B. Studies were carried out as described previously by Foley et al., (2004) Neuropsychopharmacology. In the passive avoidance task scopolamine administration (1 mg/kg, i.p.) at 6 hours following training rendered animals amnesic of the paradigm. A dose range of 3, 10, and 30 mg/kg (po) free base, administered 90 minutes prior to the training period via oral gavage, was examined.
Studies were carried out as described previously by Foley et al., (2004) Neuropsychopharmacology. In the passive avoidance task scopolamine administration (1 mg/kg, i.p.) at 6 hours following training rendered animals amnesic of the paradigm. A dose range of 3, 10, and 30 mg/kg (po) free base, administered 90 minutes prior to the training period via oral gavage, was examined.

Assay [2] concerns CA1 region of rat hippocampal slices. The assay can be described thus: CA1 cell firing (fEPSP amplitude). As to conditions: five point cumulative concentration-response, 6 slices averaged. Format: cell-based. The procedure: Rat hippocampal slices of […] thickness were cut in chilled (<4° C.) artificial cerebrospinal fluid (aCSF, composition in mM: NaCl 127, KCl 1.6, KH2PO4 1.24, MgSO4 1.3, CaCl2 2.4, NaHCO3 26 and D-glucose 10) using vibratome. Slices were maintained in oxygenated (95% O2/5% CO2) aCSF at room temperature for at least 1 hr prior to electrophysiological recording, after which they were transferred to an interface chamber and constantly perfused with warmed (30° C.) oxygenated aCSF at a flow rate of 1.5-3 ml·min−1. Schaffer collaterals were then stimulated (1-20 V, 0.1 ms pulse width, 0.033 Hz) with a concentric bipolar electrode to evoke field excitatory post synaptic potentials (fEPSPs) recorded from the stratum radiatum of the CA1 region.
Experiments were performed to examine the effect of compound compared to […] carbachol (CCh), on the amplitude of fEPSPs in the CA1 region of rat hippocampal slices. 1 μM CCh was initially applied until steady-state, followed by wash, before performing a five point cumulative concentration-response to compound. Each compound was tested on 6 slices and results averaged. Drug preparation; compound was dissolved in 100% DMSO at a stock concentration of 30 mM, and diluted according to requirements, carbamoylcholine chloride (CCh) was purchased from Sigma (Cat #C4382) and dissolved at a stock concentration of 1 mM in ddH2O.

Assay [3] deals with T1, human muscarinic M3 receptor (Homo sapiens, UniProt P20309).
T1 construct: expressed in transfected cells
T1 sequence (P20309 whole entry): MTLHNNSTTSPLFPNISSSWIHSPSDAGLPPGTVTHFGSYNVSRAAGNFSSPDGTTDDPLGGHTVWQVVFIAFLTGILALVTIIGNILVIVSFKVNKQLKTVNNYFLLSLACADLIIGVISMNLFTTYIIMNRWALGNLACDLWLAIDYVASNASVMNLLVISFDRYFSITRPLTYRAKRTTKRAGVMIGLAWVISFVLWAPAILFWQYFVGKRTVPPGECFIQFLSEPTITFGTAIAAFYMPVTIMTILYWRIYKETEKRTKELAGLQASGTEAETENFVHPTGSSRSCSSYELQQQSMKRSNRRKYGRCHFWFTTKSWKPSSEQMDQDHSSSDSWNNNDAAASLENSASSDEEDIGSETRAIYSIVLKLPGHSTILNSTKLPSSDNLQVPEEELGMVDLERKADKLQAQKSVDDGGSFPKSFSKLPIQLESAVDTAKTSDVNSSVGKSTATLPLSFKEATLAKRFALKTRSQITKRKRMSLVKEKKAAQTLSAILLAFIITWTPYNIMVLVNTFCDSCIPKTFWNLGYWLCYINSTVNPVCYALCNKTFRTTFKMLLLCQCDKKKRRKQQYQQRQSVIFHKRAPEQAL
In words: Phospho-ERK1/2 assay, muscarinic M3. Format: cell-based. The following applies: for Emax: CHO, read-out: % Emax cf. ACh (M3). The method, boiled down: (§1)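 CHO cells stably expressing human M1, M2, M3 or M4 receptor, serum-starved overnight, then stimulated with agonist for 5 min at 37 °C. Phospho-ERK1/2 quantified in lysates by AlphaScreen SureFire. pEC50 and Emax derived per subtype.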

Assay [4] concerns the target T2, human muscarinic M4 receptor (Homo sapiens, UniProt P08173).
T2 construct: expressed in transfected cells
T2 sequence (P08173 1-479): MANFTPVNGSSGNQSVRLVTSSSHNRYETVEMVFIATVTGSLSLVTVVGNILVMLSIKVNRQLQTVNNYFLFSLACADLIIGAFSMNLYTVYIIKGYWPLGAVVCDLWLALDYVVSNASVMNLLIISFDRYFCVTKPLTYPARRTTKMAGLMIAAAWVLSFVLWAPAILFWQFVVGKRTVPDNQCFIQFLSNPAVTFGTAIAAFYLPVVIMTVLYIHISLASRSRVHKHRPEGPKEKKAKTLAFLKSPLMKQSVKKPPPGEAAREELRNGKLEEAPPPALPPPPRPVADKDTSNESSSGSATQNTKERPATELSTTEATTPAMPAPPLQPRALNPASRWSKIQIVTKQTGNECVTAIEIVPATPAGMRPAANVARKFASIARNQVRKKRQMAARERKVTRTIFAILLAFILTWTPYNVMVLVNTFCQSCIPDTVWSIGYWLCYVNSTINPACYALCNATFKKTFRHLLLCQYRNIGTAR
In words: Phospho-ERK1/2 assay, muscarinic M4. It is filed as cell-based. As to conditions: for Emax: CHO, read-out: % Emax cf. ACh (M4). The method, boiled down: as §1

Assay [5] has as its target T3, human muscarinic M2 receptor (Homo sapiens, UniProt P08172).
T3 sequence (P08172 1-466): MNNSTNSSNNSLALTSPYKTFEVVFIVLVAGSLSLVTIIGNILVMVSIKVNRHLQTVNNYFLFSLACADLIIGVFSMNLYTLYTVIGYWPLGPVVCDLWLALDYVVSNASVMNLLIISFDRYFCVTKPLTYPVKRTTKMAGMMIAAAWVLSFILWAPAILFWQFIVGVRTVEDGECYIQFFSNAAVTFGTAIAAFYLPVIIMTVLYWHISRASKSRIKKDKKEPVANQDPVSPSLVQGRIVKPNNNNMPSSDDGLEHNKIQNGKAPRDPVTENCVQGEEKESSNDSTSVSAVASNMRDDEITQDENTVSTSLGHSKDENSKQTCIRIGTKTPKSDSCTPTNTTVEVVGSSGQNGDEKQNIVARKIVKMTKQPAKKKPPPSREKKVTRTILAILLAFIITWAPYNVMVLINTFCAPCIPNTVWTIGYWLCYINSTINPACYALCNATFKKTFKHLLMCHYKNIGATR
The assay can be described thus: Phospho-ERK1/2 assay, muscarinic M2. The following applies: for Emax: CHO, read-out: % Emax cf. ACh (M2). Format: cell-based. In outline:
as §1

Regarding `CCOC(=O)N1CCC[C@H](N2CCC(C(=O)NC3(C)CCC3)CC2)CC1` [Example 65, ethyl (4S)-4-{4-[(1-methylcyclobutyl)carbamoyl]piperidin-1-yl)azepane-1-carbondate], the “effect compared with donepezil (0.1 mg/kg, i.p.) positive control” value in assay [1] (10 mg/kg, FIG. 3) was “not significantly different to that produced by the cholinesterase inhibitor donepezil”; in assay [1] (10 and 30 mg/kg, FIG. 2), “not significantly different to that produced by the cholinesterase inhibitor donepezil”. The “significance of reversal of scopolamine-induced amnesia” value in assay [1] (acute 10 mg/kg po, FIG. 3) is “significant effects”; in assay [1] (acute 10 and 30 mg/kg, FIG. 2), “significant effects”. Also, the “reversal of scopolamine-induced amnesia” value in assay [1] (90 minutes prior to training) is reported as “reverse scopolamine-induced amnesia of the paradigm in a dose-dependent manner”. Besides, the EC50 in assay [2] was 2050 nM; in assay [3], greater than 20000 nM; in assay [4], 224 nM; in assay [5] it was greater than 20000 nM. Moreover, the maximum response (Emax) in assay [3] was 11%; in assay [4] it was 97%; in assay [5] it was 7%.

`CCOC(=O)N1CCCC(N2CCC(C(=O)NC3(C)CCC3)CC2)CC1` (stereo not drawn) [Example 27, ethyl 4-(4-((1-methylcyclobutyl)carbamoyl)piperidin-1-yl)azepane-1-carboxylate]: in assay [1] (90 minutes prior to training), the “reversal of scopolamine-induced amnesia” value was “reverse scopolamine-induced amnesia of the paradigm in a dose-dependent manner”. Further, the ED50 in assay [1] (po, free base, 90 minutes prior to training, scopolamine 1 mg/kg i.p. 6 hours after training, read-out: approximate ED50, reversal of scopolamine-induced amnesia) was roughly 10 mg/kg. Besides, the half-maximal effective concentration (EC50) is 1210 nM in assay [2], greater than 20000 nM in assay [3], 427 nM in assay [4] and greater than 20000 nM in assay [5]. The results for the Emax in assay [3], in assay [4] and in assay [5] were 5%, 88% and 56%, respectively.
